In ChEMBL document CHEMBL1157954, “Cycloleonuripeptides E and F, cyclic nonapeptides from Leonurus heterophyllus” (2006):
Residues, ends and D or L forms follow the SMILES beside them.

System: Aorta
Assay: Vasorelaxation activity in Wistar rat thoracic aorta assessed as inhibition of norepinephrine-induced contraction at 10^-4 M
Format: functional
Set-up: scale not given: the % may be the effect or the level left

Compound `CC[C@H](C)[C@@H]1NC(=O)[C@@H]2CCCN2C(=O)[C@H](C)NC(=O)[C@@H]2CCCN2C(=O)[C@H]([C@@H](C)O)NC(=O)[C@H](Cc2ccccc2)NC(=O)[C@H](C)NC(=O)[C@H](C)NC(=O)[C@H](C(C)C)NC1=O` [CYCLOLEONURIPEPTIDE E] (cyclo(AAFTPAPIV)) has an Activity of 32%.

`CC(C)C[C@@H]1NC(=O)[C@@H]2CCCN2C(=O)[C@H](Cc2ccc(O)cc2)NC(=O)CNC(=O)[C@@H]2CCCN2C(=O)[C@@H]2CCCN2C(=O)[C@H](Cc2ccc(O)cc2)NC(=O)[C@H](Cc2ccccc2)NC(=O)[C@@H]2CCCN2C1=O` [CYCLOLEONURIPEPTIDE F] (cyclo(FYPPGYPLP)) was tested, and the Activity was 40%.
